Results taken from patent publication US20260248881A1, “PHARMACEUTICAL COMPOSITION COMPRISING FOXM1 INHIBITOR AND IMMUNE CHECKPOINT INHIBITOR FOR PREVENTING OR TREATING CANCER” (National Cancer Center, priority 2022, published 2026).

What was measured:
[1] = test system: c-MYC, cyclin B1, cyclin E1, and cyclin D1; test: Western blot of c-MYC and cyclins in H1299 and PC9 cells; format: cell-based, human; settings: both cell lines
Experimental: Cells were lysed in RIPA buffer supplemented with complete mini protease inhibitor cocktail (#04693124001; Roche, Basel, Switzerland) and kept on ice for 30 minutes. Equal amounts of protein were evenly loaded and analyzed by sodium dodecyl sulfate-polyacrylamide gel electrophoresis (SDS-PAGE), and transferred to polyvinylidene difluoride (PVDF) membranes (#IPVH 00010; Millipore, Billerica, MA, USA) at 100 V for 1 hour. Primary antibodies (Santa Cruz Biotechnology, Texas, USA) specific for FOXM1 (#sc-271746), cyclin E1 (#sc-481), α-tubulin (#sc-8035), and β-actin (#sc-47778); PD-L1 (#13684S), cyclin D1 (#2978S), cyclin B1 (#4138S), c-MYC (#5605S), and poly(ADP-ribose) polymerase (PARP, #9542S; Cell Signaling Technology, Beverly, MA, USA) were used to probe proteins of interest. A horseradish-peroxidase-conjugated secondary antibodies specific to the primary antibody was used to detect proteins using pico-enhanced chemiluminescence substrate (#34577; Thermo Fisher Scientific).

CD274 promoter = test: Dual-luciferase assay with CD274 promoter-luciferase construct; format: cell-based, human; settings: TST in the presence of IFNγ
Text: The pGL3 plasmid containing a 2 kb promoter of CD274 (#107003; Addgene, Watertown, MA, USA) was kindly provided by Julian Downward lab (Coelho M A, de Carne Trecesson S, Rana S, Zecchin D, Moore C, Molina-Arcas M, East P, Spencer-Dene B, Nye E, Barnouin K, Snijders A P, Lai W S, Blackshear P J, Downward J, Immunity 2017, 47, 1083.). H1299 and PC9 cells were co-transfected with a pGL3 2 kb promoter. Cells containing CD274 or control pGL3-basic plasmid and pGL4.70 hRluc Renilla luciferase vector (Promega, Madison, WI, USA) were transfected with siFOXM1 or treated with TST in the presence of interferon-gamma (IFNγ). Cells were harvested 48 hours after transfection, and a dual luciferase assay was performed to the according manufacturer's protocol (#E1910; Promega). At least four independent biological replicates were examined to obtain reliable results.

[2] = In vivo toxicity in xenograft mice (serum biochemical analysis, H&E, TUNEL of normal tissues)
Experimental: IHC staining was performed using anti-rabbit-HRP antibodies (K4003, EnVision+ HRP Labelled Polymer Anti-Rabbit, Dako, Agilent Technologies, Carpinteria, CA, USA) and 3,3′-diaminobenzidine (DAB) (K3468, DAB+ Chromogen, Dako, Agilent Technologies, Santa Clara, CA, USA) as substrates, and the sections were counterstained with hematoxylin (K8008, EnVision FLEX Hematoxylin, Dako, Agilent Technologies Singapore, Singapore). To analyze the in vivo toxicity of the tested drugs, four xenograft mice from each group were used for serum biochemical analysis (Table 2). On day 9, serum samples were collected from the mice in the control and TST-treated groups. In addition, the vital organs (liver, spleen, and kidney) were collected form mice, sectioned, and stained with H&E to monitor histopathological changes.

FOXM1 and PD-L1 = test: Immunoblotting of FOXM1 and PD-L1 in human colorectal cancer cell lines; format: cell-based; settings: 5 μM TST; HCT8, HCT116, and SW480
Experimental: Human colorectal cancer cell lines (HCT116, HCT8, and SW480) and human primary coronary artery smooth muscle cells (SMCs) were purchased from the American Type Culture Collection (Manassas, VA, USA), and a MC38 mouse colorectal adenocarcinoma cell line was provided by Dr. Beom-Kyu Choi (National Cancer Center, Goyang, Republic of Korea). MC38 cells were cultured in Dulbecco's modified Eagle's medium (DMEM) supplemented with 10% FBS and 1% penicillin/streptomycin. SW480 and HCT8 cells were cultured in Roswell Park Memorial Institute (RPMI) medium supplemented with 10% FBS and 1% penicillin/streptomycin. HCT116 cells were maintained in McCoy's 5A medium supplemented with 10% FBS and 1% penicillin/streptomycin. Cells were maintained at 37° C. in a humidified incubator with 5% CO2.
For immunoblotting analysis, protein concentrations were measured using a bicinchoninic acid kit (Cat. 23225; Thermo Fisher Scientific, Carlsbad, CA, USA). Proteins were separated by SDS-PAGE electrophoresis. […] The appropriate secondary antibodies conjugated to horseradish peroxidase were bound to the washed membrane, and protein bands were detected using a chemiluminescence kit (Thermo Fisher Scientific, Carlsbad, CA, USA).

[3] = cited from earlier work
[4] = test system: Lewis lung carcinoma LLC-1; test: Syngeneic tumor model using murine lung cancer cells LLC-1
Experimental: Lewis lung carcinoma LLC-1, murine lung cancer cells (5×10^5), were implanted subcutaneously in 5-week-old C57BL/6N mice (n=6 per group) (OrientBio, Seoul, Korea) and left for 10 days to form tumors with a volume of approximately 150 mm^3. […] Tumor volumes and body weights of the mice were measured every other day. On day 9, all the mice were sacrificed, and tumor tissues were collected, fixed in formalin, embedded in paraffin, and sectioned for IHC.
CD3^+ T-cells were detected (ab16669, Cambridge, UK) by anti-CD3 antibody Abcam, according to manufacturer's manuals. The positive signal intensity of CD3^+ T-cells was analyzed by using computer image analysis with ImageJ software (LOCI, University of Wisconsin), and the intensity of CD3^+ signals was calculated as a relative ratio of total positive area/total surface area. Pathological images were obtained from an Aperio VERSA slide scanning system (Leica Biosystems Imaging, Vista, CA, USA). At 100× magnification, three independent and intact computerized microscopic fields of each tissue sample were captured by Aperio Imagescope software (Leica Biosystems Imaging, Vista, CA, USA) and were used for analysis of signal intensity of CD3^+ cells in while microscopic fields.
The in vivo synergy between TST and anti-4-1BB antibody-treated groups was determined by calculating a coefficient of drug interaction (CDI), with CDI values<1, <0.7, =1, and >1 indicating synergy, significant synergy, additivity, and antagonism, respectively.
Lewis lung carcinoma (LLC-1) mouse lung cancer cells (5×10^5) were injected subcutaneously into C57BL/6N mice (n=6 per group) and allowed to form tumors with a volume of 150 mm^3 for 10 days.

Which results are given for thiostrepton [TST]?
protein levels of c-MYC, cyclin B1, and cyclin D1 [1]: significantly decreased; decrease in relative luciferase activity (CD274 promoter activity) (CD274 promoter; H1299): 53%; decrease in relative luciferase activity (CD274 promoter activity) (CD274 promoter; PC9): 66%; histological changes in vital organs (H&E staining) ([2]; liver, spleen, kidney): no significant histological changes; A/G ratio ([2]; serum, day 9, n = 4): 1.99 ± 0.13; ALP ([2]; serum, day 9, n = 4): 91.50 ± 15.04 U/L; ALT ([2]; serum, day 9, n = 4): 31.25 ± 4.21 U/L; AST ([2]; serum, day 9, n = 4): 82.75 ± 8.58 U/L; Alb ([2]; serum, day 9, n = 4): 3.28 ± 0.08 g/dL; BUN ([2]; serum, day 9, n = 4): 19.70 ± 1.11 mg/dL; Crea ([2]; serum, day 9, n = 4): 0.00 ± 0.00 mg/dL; Glo ([2]; serum, day 9, n = 4): 1.65 ± 0.09 g/dL; Glu ([2]; serum, day 9, n = 4): 321.00 ± 58.73 mg/dL; T-Bill ([2]; serum, day 9, n = 4): 0.10 ± 0.00 mg/dL; T-chol ([2]; serum, day 9, n = 4): 107.50 ± 3.20 mg/dL; TG ([2]; serum, day 9, n = 4): 118.00 ± 14.88 mg/dL; TP ([2]; serum, day 9, n = 4): 4.93 ± 0.08 g/dL; levels of blood biomarkers ([2]; vs DMSO control group): not significantly changed; apoptotic cell death in normal tissues (TUNEL assay) ([2]; vs DMSO control tissues): no effect on apoptotic cell death in normal tissues; FOXM1 and PD-L1 levels (FOXM1 and PD-L1): significantly decreased both FOXM1 and PD-L1 levels; solubility in water [3]: low solubility in water; number of apoptotic tumor cells (TUNEL), vs control group ([4]; day 9): 2.46 fold; increase in CD3+ T cells in tumors, vs control group ([4]; immunohistochemical staining): 1.32 fold; tumor growth inhibition ([4]; treatment initiated at smaller tumor size (~80 mm^3), antibodies 0.2 mg/mouse): 63.1%; inhibition of tumor growth ([4]; tumors 150 mm^3 at start, TST 17 mg/kg, anti-4-1BB 0.2 mg/mouse, day 1, 3, 5, 7, vs control group): 48%
